Test results: PubChem BioAssay AID1996
Values after ≈ are worked out from the molar mass of the structure shown.

Details: buffer; pH 7.4; 200.0 µM

Row | SMILES | solubility kinetic [µg/mL]
1 | CN=C1S/C(=C\c2cccc(Cl)c2Cl)C(=O)N1C | < 0.3
2 | Cc1[nH]c2ccccc2c1C(=O)CSC(=S)N1CCOCC1 | 2.4 (≈ 7.18 µM)
3 | C=CCN1C(=O)C(=O)N(Cc2nc3ccccc3s2)C1=O | > 45.2
4 | CCOC(=O)N1CCN(S(=O)(=O)c2ccc3c4c(cccc24)C(=O)N3)CC1 | 3.6 (≈ 9.24 µM)
5 | FC(F)(F)c1ccc2c(c1)NCC1CCCN21 (stereo not drawn) | 13 (≈ 53.7 µM)
6 | Cc1ccccc1NC(=O)CSc1nc(O)cc(=O)n1C | 35.6 (≈ 117 µM)
7 | CC(=O)NC(=S)Nc1ccc([N+](=O)[O-])cc1C | 3.5 (≈ 13.8 µM)
8 | CCN(CC)CCNC(=O)c1ccc(-n2c(C)cc3c2CCCC3=O)cc1 | 33.7 (≈ 91.7 µM)
9 | Cc1ccc2c(=O)cc(C(=O)NC3CCS(=O)(=O)C3)oc2c1 (stereo not drawn) | > 48.2
10 | CC1Cc2ccccc2N1C(=S)NC1CCCC1 (stereo not drawn) | 13.7 (≈ 52.6 µM)
11 | CC(C)c1ccccc1NS(=O)(=O)c1cccs1 | 28.2 (≈ 100 µM)
12 | CC(=O)Nc1c2c(nn1-c1ccccc1C)CS(=O)C2 (stereo not drawn) | > 43.4
13 | Cc1nn(CC(=O)N2CCC(C)CC2)c(=O)c2cccn12 | > 43.3
14 | Cc1cc(NC(=O)c2cc([N+](=O)[O-])ccc2Cl)no1 | > 42.2
15 | Cc1nc2c(C#N)cnn2c2c1CCN2CC1CCCO1 (stereo not drawn) | > 42.5
16 | O=C(Nc1ccccc1Cl)c1cccc(NC(=O)C2CCCC2)c1 | 26.9 (≈ 78.5 µM)
17 | CC(=O)Nc1ccc2nc(NC(=O)CN3CCOCC3)sc2c1 | > 50.2
18 | Cc1cc(C)c2c(c1)C1(OCCO1)C(=O)N2 | 16.1 (≈ 73.4 µM)
19 | CN1C2CCC1CC(NC(=O)c1cc(Cl)cc3[nH]cnc13)C2 (stereo not drawn) | 40.7 (≈ 128 µM)
20 | C=C(C)c1cccc(C(C)(C)NC(=O)N2CCN(c3ccccc3)CC2)c1 | 0.3 (≈ 0.825 µM)
21 | CC(CN1C(C)CCCC1C)OC(=O)c1cccc(F)c1.Cl (stereo not drawn) | > 49.5
22 | CCN(CC)C(=O)N1CCN(C(=O)N2CCOCC2)CC1 | 30 (≈ 101 µM)
23 | CCC(=O)OC1(Cc2ccc(CC)cc2)CC(C)N(C)CC1C.Cl (stereo not drawn) | 46.9
24 | N#CC(C#N)=C(N)Nc1cccc(Cl)c1 | 30.7 (≈ 140 µM)
25 | COc1ccc(-c2cn(-c3ccc(C)c(Cl)c3)c(=S)[nH]2)cc1OC | 11.9 (≈ 33 µM)
26 | C=CCOC(=O)C1=C(C)NC(=O)NC1c1ccc(N(C)C)cc1 (stereo not drawn) | 5.8 (≈ 18.4 µM)
27 | O=C(NC1CC1)C(Cl)c1ccccc1 (stereo not drawn) | > 31.5
28 | O=C1CCC(C(=O)N2CCOCC2)CN1Cc1ccc(Cl)cc1 (stereo not drawn) | > 50.5
29 | Cc1ccccc1NC(=O)NCCCN1CCCC1=O | > 41.3

Second part, the compound after the results:

Row | solubility kinetic [µg/mL] | SMILES
30 | 20.1 (≈ 70.9 µM) | Cc1ccc(CNC(=O)C2COc3ccccc3O2)cc1 (stereo not drawn)
31 | < 0.2 | CCN(CC)c1ccc(Nc2nc(-c3cccnc3)cs2)cc1
32 | > 50.9 | COC(=O)c1ccsc1NC(=O)CS(=O)(=O)c1ccccc1
33 | 0.8 (≈ 2.74 µM) | Cc1ccccc1-c1nc2cc(NC(=O)C3CC3)ccc2o1
34 | 34 (≈ 111 µM) | Cc1ccc(NC(=O)CCN2C(=O)OC(C)(C)C2(C)O)cc1 (stereo not drawn)
35 | 0.3 (≈ 0.863 µM) | CCOc1ccc(-n2cc(-c3ccccc3)c3c(=S)nc[nH]c32)cc1
36 | > 47.9 | COc1ccccc1N(CC1CO1)S(=O)(=O)c1ccccc1 (stereo not drawn)
37 | > 44.9 | COc1cccc(C(=O)NCCNC(=O)c2ccccn2)c1
38 | > 40.2 | COn1c(=O)c(-c2ccccc2)[n+]([O-])c2ccccc21
39 | 44.8 (≈ 127 µM) | COc1ccc(NC(=S)N(Cc2cccnc2)Cc2ccco2)cc1
40 | > 67.9 | CCN(C(=O)CSc1nnc(-c2ccc(OC)cc2)n1C(C)C)C1CCS(=O)(=O)C1 (stereo not drawn)
41 | < 0.3 | Cc1ccc(CSc2nc3ccccc3c(=O)n2C)cc1
42 | 0.9 (≈ 2.56 µM) | CC(=O)Nc1ccc(NC(=O)c2sc(-c3ccccc3)nc2C)cc1
43 | > 41.3 | CSc1ccccc1C(=O)NCCCn1ccnc1
44 | 19.1 (≈ 79.8 µM) | O=[N+]([O-])c1cccc(-c2ncc3ccccn23)c1
45 | 10.9 (≈ 33.6 µM) | COc1ccc(OC)c(NC(=O)CCc2c[nH]c3ccccc23)c1
46 | 33.7 (≈ 110 µM) | COc1ccccc1CNCc1ccc(OC)c2ccccc12
47 | 2.9 (≈ 9.82 µM) | Cc1c(C(=O)Nc2ccc3c(c2)OCO3)oc2ccccc12
48 | 5.6 (≈ 16.1 µM) | CCOc1ccccc1NC(=O)CCNC(=O)c1ccc(Cl)cc1
